Tested on: 777334-354-R2-J4-PDC tumor spheroids with HUVEC/MSC, viability
Assay: Anticancer human tumor 777334-354-R2-J4-PDC patient-derived pancreatic adenocarcinoma cell line growth inhibition [GQUAD]
Conditions: for IC50: curve of first compound; for viability, T/C: stronger effect = lower value
Procedure, shortened: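 Tumor cells were grown as complex spheroids with HUVEC endothelial cells and mesenchymal stem cells as stroma. G-quadruplex stabilizers were combined with targeted agents over half-log dilutions from near the clinical Cmax, or from 10 microM.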

[1] = second compound 0.0316 µM, first compound 0.0316 µM
[2] = second compound 0.0316 µM, first compound 0.1 µM
[3] = second compound 0.0316 µM, first compound 0.316 µM
[4] = second compound 0.0316 µM, first compound 1 µM
[5] = second compound 0.0316 µM, first compound 3.16 µM
[6] = second compound 0.0316 µM, first compound 10 µM
[7] = second compound 0.1 µM, first compound 0.0316 µM
[8] = second compound 0.1 µM, first compound 0.1 µM
[9] = second compound 0.1 µM, first compound 0.316 µM
[10] = second compound 0.1 µM, first compound 1 µM
[11] = second compound 0.1 µM, first compound 3.16 µM
[12] = second compound 0.1 µM, first compound 10 µM
[13] = second compound 0.316 µM, first compound 0.0316 µM
[14] = second compound 0.316 µM, first compound 0.1 µM
[15] = second compound 0.316 µM, first compound 0.316 µM
[16] = second compound 0.316 µM, first compound 1 µM
[17] = second compound 0.316 µM, first compound 3.16 µM
[18] = second compound 0.316 µM, first compound 10 µM
[19] = second compound 1 µM, first compound 0.0316 µM
[20] = second compound 1 µM, first compound 0.1 µM
[21] = second compound 1 µM, first compound 0.316 µM
[22] = second compound 1 µM, first compound 1 µM
[23] = second compound 1 µM, first compound 3.16 µM
[24] = second compound 1 µM, first compound 10 µM
[25] = second compound 3.16 µM, first compound 0.0316 µM
[26] = second compound 3.16 µM, first compound 0.1 µM
[27] = second compound 3.16 µM, first compound 0.316 µM
[28] = second compound 3.16 µM, first compound 1 µM
[29] = second compound 3.16 µM, first compound 3.16 µM
[30] = second compound 3.16 µM, first compound 10 µM
[31] = second compound 10 µM, first compound 0.0316 µM
[32] = second compound 10 µM, first compound 0.1 µM
[33] = second compound 10 µM, first compound 0.316 µM
[34] = second compound 10 µM, first compound 1 µM
[35] = second compound 10 µM, first compound 3.16 µM
[36] = second compound 10 µM, first compound 10 µM
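Note: spheroids exposed to compounds for 7 days before readout.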

## CC(C)(O)C1CCC(Nc2ccc3ncc(-c4cccc(C(F)(F)F)c4)n3n2)CC1 (stereo not given) + Cc1[nH]c2ccc(F)cc2c1-c1nc2c3cccnc3c3ncccc3c2[nH]1
Second compound 0.0316 µM
  IC50: 1500 nM
Second compound 0.1 µM
  IC50: 1330 nM
Second compound 0.316 µM
  IC50: 1060 nM
Second compound 1 µM
  IC50: 874 nM
Second compound 3.16 µM
  IC50: < 31.6 nM
Second compound 10 µM
  IC50: < 31.6 nM
[1]
  viability, T/C: 82.8%
[2]
  viability, T/C: 97.5%
[3]
  viability, T/C: 87.3%
[4]
  viability, T/C: 59.9%
[5]
  viability, T/C: 30.1%
[6]
  viability, T/C: 33.9%
[7]
  viability, T/C: 96.7%
[8]
  viability, T/C: 94.5%
[9]
  viability, T/C: 84.8%
[10]
  viability, T/C: 55%
[11]
  viability, T/C: 35.1%
[12]
  viability, T/C: 32.4%
[13]
  viability, T/C: 96.7%
[14]
  viability, T/C: 87.2%
[15]
  viability, T/C: 87%
[16]
  viability, T/C: 51.2%
[17]
  viability, T/C: 30.3%
[18]
  viability, T/C: 32.7%
[19]
  viability, T/C: 86.7%
[20]
  viability, T/C: 68.2%
[21]
  viability, T/C: 82.4%
[22]
  viability, T/C: 46.1%
[23]
  viability, T/C: 29.7%
[24]
  viability, T/C: 24.6%
[25]
  viability, T/C: 35.1%
[26]
  viability, T/C: 28.4%
[27]
  viability, T/C: 23.2%
[28]
  viability, T/C: 12.9%
[29]
  viability, T/C: 8.53%
[30]
  viability, T/C: 10.5%
[31]
  viability, T/C: 26.7%
[32]
  viability, T/C: 27.6%
[33]
  viability, T/C: 18%
[34]
  viability, T/C: 12.3%
[35]
  viability, T/C: 7.51%
[36]
  viability, T/C: 7.22%

## COc1ncnc(C2CC2)c1-c1ncc2cnn(Cc3ccc(-c4nc(C(F)(F)F)cn4C(C)C)cc3)c2n1 + Cc1[nH]c2ccc(F)cc2c1-c1nc2c3cccnc3c3ncccc3c2[nH]1
Second compound 0.0316 µM
  IC50: > 10000 nM
Second compound 0.1 µM
  IC50: > 10000 nM
Second compound 0.316 µM
  IC50: > 10000 nM
Second compound 1 µM
  IC50: > 10000 nM
Second compound 3.16 µM
  IC50: 127 nM
Second compound 10 µM
  IC50: < 31.6 nM
[1]
  viability, T/C: 104%
[2]
  viability, T/C: 96.9%
[3]
  viability, T/C: 103%
[4]
  viability, T/C: 91.4%
[5]
  viability, T/C: 83%
[6]
  viability, T/C: 112%
[7]
  viability, T/C: 102%
[8]
  viability, T/C: 89.4%
[9]
  viability, T/C: 100%
[10]
  viability, T/C: 92.1%
[11]
  viability, T/C: 89%
[12]
  viability, T/C: 105%
[13]
  viability, T/C: 93%
[14]
  viability, T/C: 85%
[15]
  viability, T/C: 96.7%
[16]
  viability, T/C: 85.4%
[17]
  viability, T/C: 93.1%
[18]
  viability, T/C: 110%
[19]
  viability, T/C: 81.9%
[20]
  viability, T/C: 88.3%
[21]
  viability, T/C: 90.5%
[22]
  viability, T/C: 79.6%
[23]
  viability, T/C: 91%
[24]
  viability, T/C: 79.3%
[25]
  viability, T/C: 56.1%
[26]
  viability, T/C: 58.8%
[27]
  viability, T/C: 37.6%
[28]
  viability, T/C: 43.5%
[29]
  viability, T/C: 49.3%
[30]
  viability, T/C: 49.7%
[31]
  viability, T/C: 39.7%
[32]
  viability, T/C: 35.3%
[33]
  viability, T/C: 38.2%
[34]
  viability, T/C: 18.8%
[35]
  viability, T/C: 33.3%
[36]
  viability, T/C: 35.7%

## O=C(NO)c1cnc(N2CCN(S(=O)(=O)c3ccc4ccccc4c3)CC2)nc1 + Cc1[nH]c2ccc(F)cc2c1-c1nc2c3cccnc3c3ncccc3c2[nH]1
Second compound 0.0316 µM
  IC50: 1440 nM
Second compound 0.1 µM
  IC50: 1390 nM
Second compound 0.316 µM
  IC50: 1520 nM
Second compound 1 µM
  IC50: 1580 nM
Second compound 3.16 µM
  IC50: 1050 nM
Second compound 10 µM
  IC50: < 31.6 nM
[1]
  viability, T/C: 104%
[2]
  viability, T/C: 91.6%
[3]
  viability, T/C: 87.3%
[4]
  viability, T/C: 68.3%
[5]
  viability, T/C: 12.7%
[6]
  viability, T/C: 2.55%
[7]
  viability, T/C: 92.7%
[8]
  viability, T/C: 101%
[9]
  viability, T/C: 91.6%
[10]
  viability, T/C: 64.6%
[11]
  viability, T/C: 13.6%
[12]
  viability, T/C: 0.23%
[13]
  viability, T/C: 99.2%
[14]
  viability, T/C: 92.9%
[15]
  viability, T/C: 86.2%
[16]
  viability, T/C: 67.1%
[17]
  viability, T/C: 22%
[18]
  viability, T/C: 2.6%
[19]
  viability, T/C: 88.4%
[20]
  viability, T/C: 84.6%
[21]
  viability, T/C: 71.8%
[22]
  viability, T/C: 70.1%
[23]
  viability, T/C: 22.5%
[24]
  viability, T/C: 2.98%
[25]
  viability, T/C: 55.7%
[26]
  viability, T/C: 41.7%
[27]
  viability, T/C: 67%
[28]
  viability, T/C: 50.5%
[29]
  viability, T/C: 17.5%
[30]
  viability, T/C: 0.99%
[31]
  viability, T/C: 38.4%
[32]
  viability, T/C: 38.7%
[33]
  viability, T/C: 52.4%
[34]
  viability, T/C: 41.9%
[35]
  viability, T/C: 19.7%
[36]
  viability, T/C: 2.58%

## CC1COCCN1c1cc(C2(S(C)(=N)=O)CC2)nc(-c2ccnc3[nH]ccc23)n1 (stereo not given) + Cc1cnc(CNC(=O)c2c(=O)c3ccc(N4CCCN(C)CC4)nc3n3c2sc2ccccc23)cn1
Second compound 0.0316 µM
  IC50: > 10000 nM
Second compound 0.1 µM
  IC50: > 10000 nM
Second compound 0.316 µM
  IC50: > 10000 nM
Second compound 1 µM
  IC50: > 10000 nM
Second compound 3.16 µM
  IC50: > 10000 nM
Second compound 10 µM
  IC50: > 10000 nM
[1]
  viability, T/C: 103%
[2]
  viability, T/C: 85.7%
[3]
  viability, T/C: 113%
[4]
  viability, T/C: 93.9%
[5]
  viability, T/C: 99%
[6]
  viability, T/C: 53.8%
[7]
  viability, T/C: 112%
[8]
  viability, T/C: 84.4%
[9]
  viability, T/C: 94.8%
[10]
  viability, T/C: 80.5%
[11]
  viability, T/C: 88.9%
[12]
  viability, T/C: 53%
[13]
  viability, T/C: 84.1%
[14]
  viability, T/C: 87.4%
[15]
  viability, T/C: 81.2%
[16]
  viability, T/C: 82%
[17]
  viability, T/C: 86.9%
[18]
  viability, T/C: 52.3%
[19]
  viability, T/C: 76.2%
[20]
  viability, T/C: 93.4%
[21]
  viability, T/C: 78.5%
[22]
  viability, T/C: 81.5%
[23]
  viability, T/C: 68.6%
[24]
  viability, T/C: 50.7%
[25]
  viability, T/C: 64.5%
[26]
  viability, T/C: 57.1%
[27]
  viability, T/C: 65%
[28]
  viability, T/C: 58.7%
[29]
  viability, T/C: 69.2%
[30]
  viability, T/C: 54.7%
[31]
  viability, T/C: 56.5%
[32]
  viability, T/C: 59.5%
[33]
  viability, T/C: 53.5%
[34]
  viability, T/C: 55.9%
[35]
  viability, T/C: 57.5%
[36]
  viability, T/C: 44.7%

## COc1ccc([C@@H](O)c2cc(-c3ncnc4cc(N5CCOCC5)ccc34)c(F)cc2Cl)nn1 + Cc1cnc(CNC(=O)c2c(=O)c3ccc(N4CCCN(C)CC4)nc3n3c2sc2ccccc23)cn1
Second compound 0.0316 µM
  IC50: 2990 nM
Second compound 0.1 µM
  IC50: 1610 nM
Second compound 0.316 µM
  IC50: 2100 nM
Second compound 1 µM
  IC50: 1490 nM
Second compound 3.16 µM
  IC50: 955 nM
Second compound 10 µM
  IC50: 662 nM
[1]
  viability, T/C: 101%
[2]
  viability, T/C: 94.4%
[3]
  viability, T/C: 101%
[4]
  viability, T/C: 72.1%
[5]
  viability, T/C: 51%
[6]
  viability, T/C: 24.6%
[7]
  viability, T/C: 102%
[8]
  viability, T/C: 84.4%
[9]
  viability, T/C: 69.9%
[10]
  viability, T/C: 57.9%
[11]
  viability, T/C: 42.8%
[12]
  viability, T/C: 23.2%
[13]
  viability, T/C: 93.9%
[14]
  viability, T/C: 89.3%
[15]
  viability, T/C: 75.8%
[16]
  viability, T/C: 64.8%
[17]
  viability, T/C: 42%
[18]
  viability, T/C: 20.1%
[19]
  viability, T/C: 76.2%
[20]
  viability, T/C: 84.1%
[21]
  viability, T/C: 69.5%
[22]
  viability, T/C: 57.7%
[23]
  viability, T/C: 36.3%
[24]
  viability, T/C: 19.2%
[25]
  viability, T/C: 61.1%
[26]
  viability, T/C: 64.9%
[27]
  viability, T/C: 63.1%
[28]
  viability, T/C: 45.6%
[29]
  viability, T/C: 34.9%
[30]
  viability, T/C: 17.1%
[31]
  viability, T/C: 58.4%
[32]
  viability, T/C: 61%
[33]
  viability, T/C: 52.5%
[34]
  viability, T/C: 48.5%
[35]
  viability, T/C: 28.6%
[36]
  viability, T/C: 15.6%
